How the values were obtained:
[1] = tested on: γ2 subunit containing GABAA receptors; assay: Control of γ2 subunit incorporation with diazepam; assay type: cell-based, rat; conditions: 1 µM
Protocol: (§1) For electrophysiological recordings, oocytes were placed on a nylon-grid in a bath of Ca^2+-containing NDE solution medium [96 mM NaCl, 5 mM HEPES-NaOH (pH 7.5), 2 mM KCl, 1 mM MgCl2, 1.8 mM CaCl2]. For current measurements the oocytes were impaled with two microelectrodes (1–3 MΩ resistance) filled with 2 M KCl. […] The EC3–5 was determined at the beginning of each experiment. Drugs were diluted into NDE from DMSO-solutions resulting in a final concentration of 0.1% DMSO perfusing the oocytes. […] Between two applications, oocytes were washed in NDE for up to 15 min to ensure full recovery from desensitization. […] All recordings were performed at room temperature at a holding potential of […] using a Dagan TEV-200A two-electrode voltage clamp (Dagan Corporation, Mineapolis, MN). Data were digitized, recorded and measured using an Axon Digidata- 1550 low-noise data acquisition system (Axon Instruments, Union City, CA).

[2] = target: T1, γ1 subunit containing GABAA receptors (Rattus norvegicus, UniProt P15431+P62813); assay: Control of γ1 subunit incorporation with triazolam; assay type: cell-based; conditions: 10 µM
T1 construct: expressed in transfected cells; host or cells: Xenopus laevis oocytes, mRNA injected
T1 sequence (P62813 28-455): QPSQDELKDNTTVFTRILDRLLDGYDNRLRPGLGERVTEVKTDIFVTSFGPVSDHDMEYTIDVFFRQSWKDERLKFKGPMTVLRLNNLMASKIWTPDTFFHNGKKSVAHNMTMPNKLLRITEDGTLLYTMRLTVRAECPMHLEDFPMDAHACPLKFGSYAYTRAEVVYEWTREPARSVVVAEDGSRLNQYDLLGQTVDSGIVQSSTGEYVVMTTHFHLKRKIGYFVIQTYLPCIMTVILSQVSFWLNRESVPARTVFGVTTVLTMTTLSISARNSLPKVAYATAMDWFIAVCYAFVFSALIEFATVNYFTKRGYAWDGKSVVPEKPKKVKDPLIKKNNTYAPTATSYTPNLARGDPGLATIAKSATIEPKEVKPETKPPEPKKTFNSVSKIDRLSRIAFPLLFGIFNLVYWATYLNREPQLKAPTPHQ
T1 sequence (P15431 26-474): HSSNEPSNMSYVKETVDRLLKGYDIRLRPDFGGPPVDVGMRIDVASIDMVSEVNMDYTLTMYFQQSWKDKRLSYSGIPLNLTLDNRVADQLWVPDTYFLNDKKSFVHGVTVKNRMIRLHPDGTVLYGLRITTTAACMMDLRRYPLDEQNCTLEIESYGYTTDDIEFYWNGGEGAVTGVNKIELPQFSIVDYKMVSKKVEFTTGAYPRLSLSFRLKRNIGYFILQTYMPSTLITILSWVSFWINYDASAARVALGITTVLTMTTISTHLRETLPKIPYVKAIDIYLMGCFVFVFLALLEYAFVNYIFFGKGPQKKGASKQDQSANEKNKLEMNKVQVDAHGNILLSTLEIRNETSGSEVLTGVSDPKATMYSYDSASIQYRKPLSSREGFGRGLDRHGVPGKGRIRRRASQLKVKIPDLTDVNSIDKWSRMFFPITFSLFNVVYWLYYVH
T1 sequence (P23574 36-465 partner limits assumed): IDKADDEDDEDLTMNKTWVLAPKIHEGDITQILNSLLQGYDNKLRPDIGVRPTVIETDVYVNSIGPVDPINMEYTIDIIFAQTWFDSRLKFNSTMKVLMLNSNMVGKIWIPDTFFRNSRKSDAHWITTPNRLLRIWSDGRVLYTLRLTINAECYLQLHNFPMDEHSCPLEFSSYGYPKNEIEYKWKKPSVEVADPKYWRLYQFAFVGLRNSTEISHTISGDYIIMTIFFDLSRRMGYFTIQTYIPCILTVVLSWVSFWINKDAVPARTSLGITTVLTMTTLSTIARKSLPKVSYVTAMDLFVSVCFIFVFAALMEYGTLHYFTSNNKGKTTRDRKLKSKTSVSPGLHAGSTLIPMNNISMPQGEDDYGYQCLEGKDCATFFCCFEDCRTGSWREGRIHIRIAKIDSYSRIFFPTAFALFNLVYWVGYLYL
Protocol: as §1

[3] = tested on: δ subunit containing GABAA receptors; assay: Control of δ subunit incorporation with DS2; assay type: cell-based, rat; conditions: 1 µM
Protocol: as §1, with “desensitization. Maximum currents measured in mRNA injected oocytes were in the microampere range for all subtypes of GABAA receptors. […] In order to monitor receptor composition, diazepam (~200% modulation at 1 µM) was used to investigate the incorporation of the γ2[25] subunit, DS2 (>800% modulation at 1 µM) for the incorporation of the δ subunit and triazolam (>200% modulation at 10 µM) for the γ1 incorporation.” for “desensitization.”, “CA). […]” for “CA).”

CN1C(=O)CN=C(c2ccccc2)c2cc(Cl)ccc21 [diazepam, Diazepam]
modulation [1]: ~ 200%

Cc1nnc2n1-c1ccc(Cl)cc1C(c1ccccc1Cl)=NC2 [triazolam, Triazolam]
modulation [2]: > 200%

O=C(Nc1c(-c2cccs2)nc2ccccn12)c1ccc(Cl)cc1 [DS2]
modulation [3]: > 800%

— article PMC5516028, “Molecular tools for GABAA receptors: High affinity ligands for β1-containing subtypes” (Scientific Reports, 2017)
